Laboratory results reported in patent publication US12528792B2, “Sulfonamide compounds and the use thereof in the treatment of cancer” (TROBIO THERAPEUTICS PTY LTD, priority 2019, dated 2026).

How the values were obtained:
[1] = test system: A2780 (ovarian) cells; assay: Anti-proliferative activity, Cell-Titre luminescent viability assay; type: cell-based; conditions: Homo sapiens, 72 h exposure, Cell-Titre luminescent reagent
Procedure: (§1) The ability of compounds of the disclosure to inhibit the proliferation of cancer cells representative of non-small cell lung cancer and ovarian cancer (Table 1), and pancreatic cancer, colorectal cancer and prostate cancer (Table 2) was assessed. Briefly, a predetermined number of cells as calculated from cell growth assays for each of the cell lines employed were seeded into their respective culture medium (using ATCC culture parameters—http://www.atcc.org) and cultured for 24 h at 37° C. and 5% CO2 in 96-well culture plates. Once attached, each cell line was then exposed to various concentrations of each respective analogue (100, 30, 10, 3, 1 and 0.3 µM or 30, 10, 3, 1, 0.3 and 0.1 μM), cultured for a further 72 h and exposed to Cell-Titre luminescent reagent (100 μL/well) for a further 30 min. Luminescence was captured using an EnVision multilabel reader and the data for each analogue concentration compared against no treatment control. Cell viability was normalised to control (vehicle alone) and dose response curves, and half maximal effective concentration (EC50) values were determined using Graph Pad Prism 6 (nonlinear regression sigmoidal dose-response variable slope).

[2] = test system: A549 (NSCLC) cells; assay: as above; type: cell-based; conditions: Homo sapiens, 72 h exposure, Cell-Titre luminescent reagent
Procedure: as §1

Row | IC50 [1] [µM] | IC50 [2] [µM] | SMILES
1 | > 30 | > 30 | COc1ccc(NC(=O)c2ccn(S(=O)(=O)c3ccc4[nH]ccc4c3)c2)cc1F [Compound 103, 1-((1H-indol-5-yl)sulfonyl)-N-(3-fluoro-4-methoxyphenyl)-1H-pyrrole-3-carboxamide]
2 | > 30 | > 30 | Cc1ccccc1NC(=O)C1CCN(S(=O)(=O)c2ccc3[nH]ccc3c2)CC1 [Compound 62, 1-((1H-indol-5-yl)sulfonyl)-N-(o-tolyl)piperidine-4-carboxamide]
3 | 13.6 | 15.9 | O=C(Nc1ccc(Cl)cc1)c1ccn(S(=O)(=O)c2ccc3[nH]ccc3c2)c1 [Compound 66, 1-((1H-indol-5-yl)sulfonyl)-N-(4-chlorophenyl)-1H-pyrrole-3-carboxamide]
4 | 19.5 | 17.9 | Cc1cc(F)cc(NC(=O)c2ccn(S(=O)(=O)c3ccc4[nH]ccc4c3)c2)c1 [Compound 56, 1-((1H-indol-5-yl)sulfonyl)-N-(3-fluoro-5-methylphenyl)-1H-pyrrole-3-carboxamide]
5 | 5.28 | 7.84 | CC(C)c1ccc(NC(=O)c2ccn(S(=O)(=O)c3ccc4[nH]ccc4c3)c2)cc1F [Compound 95, 1-((1H-indol-5-yl)sulfonyl)-N-(3-fluoro-4-isopropylphenyl)-1H-pyrrole-3-carboxamide]
6 | 13.2 | 4.84 | O=C(Nc1ccc(F)c(F)c1)c1ccn(S(=O)(=O)c2ccc3[nH]ccc3c2)n1 [Compound 80, 1-((1H-indol-5-yl)sulfonyl)-N-(3,4-difluorophenyl)-1H-pyrazole-3-carboxamide]
7 | 9.85 | 5.44 | CCC(C)c1ccc(NC(=O)c2ccn(S(=O)(=O)c3ccc4[nH]ccc4c3)n2)cc1F (stereo not drawn) [Compound 106, 1-((1H-indol-5-yl)sulfonyl)-N-(4-(sec-butyl)-3-fluorophenyl)-1H-pyrazole-3-carboxamide]
8 | 11.4 | 6.85 | CC(C)Cc1ccc(NC(=O)c2ccn(S(=O)(=O)c3ccc4[nH]ccc4c3)n2)cc1 [Compound 111, 1-((1H-indol-5-yl)sulfonyl)-N-(4-isobutylphenyl)-1H-pyrazole-3-carboxamide]
9 | > 30 | 13.4 | COc1ccc(NC(=O)c2ccn(S(=O)(=O)c3ccc4[nH]ccc4c3)n2)cc1F [Compound 116, 1-((1H-indol-5-yl)sulfonyl)-N-(3-fluoro-4-methoxyphenyl)-1H-pyrazole-3-carboxamide]
10 | 23.8 | > 30 | O=C(Nc1ccc(F)cc1)c1ccn(S(=O)(=O)c2ccc3[nH]ccc3c2)n1 [Compound 76, 1-((1H-indol-5-yl)sulfonyl)-N-(4-fluorophenyl)-1H-pyrazole-3-carboxamide]
11 | > 30 | > 30 | Cc1cccc(F)c1NC(=O)c1ccn(S(=O)(=O)c2ccc3[nH]ccc3c2)c1 [Compound 55, 1-((1H-indol-5-yl)sulfonyl)-N-(2-fluoro-6-methylphenyl)-1H-pyrrole-3-carboxamide]
12 | 7.51 | 8.51 | CCC(C)c1ccc(NC(=O)c2ccn(S(=O)(=O)c3ccc4[nH]ccc4c3)n2)cc1 (stereo not drawn) [Compound 105, 1-((1H-indol-5-yl)sulfonyl)-N-(4-(sec-butyl)phenyl)-1H-pyrazole-3-carboxamide]
13 | 4.32 | 7.92 | CCC(C)c1ccc(NC(=O)c2ccn(S(=O)(=O)c3ccc4[nH]ccc4c3)c2)cc1F (stereo not drawn) [Compound 94, 1-((1H-indol-5-yl)sulfonyl)-N-(4-(sec-butyl)-3-fluorophenyl)-1H-pyrrole-3-carboxamide]
14 | 10.5 | 5.93 | CC(C)(C)c1ccc(NC(=O)c2ccn(S(=O)(=O)c3ccc4[nH]ccc4c3)n2)cc1F [Compound 114, 1-((1H-indol-5-yl)sulfonyl)-N-(4-(tert-butyl)-3-fluorophenyl)-1H-pyrazole-3-carboxamide]
15 | 11.8 | 10.7 | Cc1cc(C)cc(NC(=O)c2ccn(S(=O)(=O)c3ccc4[nH]ccc4c3)c2)c1 [Compound 52, 1-((1H-indol-5-yl)sulfonyl)-N-(3,5-dimethylphenyl)-1H-pyrrole-3-carboxamide]
16 | 21.3 | 11.1 | O=C(Nc1ccc(Cl)cn1)c1ccn(S(=O)(=O)c2ccc3[nH]ccc3c2)n1 [Compound 85]
17 | 7.2 | 17.9 | Cc1cccc(C)c1NC(=O)c1ccn(S(=O)(=O)c2ccc3[nH]ccc3c2)c1 [Compound 51, 1-((1H-indol-5-yl)sulfonyl)-N-(2,6-dimethylphenyl)-1H-pyrrole-3-carboxamide]
18 | > 30 | > 30 | O=C(Nc1ccc(F)nc1)c1ccn(S(=O)(=O)c2ccc3[nH]ccc3c2)n1 [Compound 86, 1-((1H-indol-5-yl)sulfonyl)-N-(6-fluoropyridin-3-yl)-1H-pyrazole-3-carboxamide]

Row | IC50 [1] [µM] | IC50 [2] [µM] | SMILES
19 | 4.53 | 5.17 | CC(C)(C)c1ccc(NC(=O)c2ccn(S(=O)(=O)c3ccc4[nH]ccc4c3)c2)cc1F [Compound 101, 1-((1H-indol-5-yl)sulfonyl)-N-(4-(tert-butyl)-3-fluorophenyl)-1H-pyrrole-3-carboxamide]
20 | > 100 | > 100 | Cc1ccc(NC(=O)C2CCN(S(=O)(=O)c3ccc4c(c3)CCN4)CC2)cc1O [Compound 4, N-(3-hydroxy-4-methylphenyl)-1-(indolin-5-ylsulfonyl)piperidine-4-carboxamide]
21 | 11 | 11.3 | CCc1ccc(NC(=O)c2ccn(S(=O)(=O)c3ccc4[nH]ccc4c3)c2)cc1 [Compound 40, 1-((1H-indol-5-yl)sulfonyl)-N-(4-ethylphenyl)-1H-pyrrole-3-carboxamide]
22 | 3.9 | > 30 | O=C(Nc1ccc(F)nc1)c1ccn(S(=O)(=O)c2ccc3[nH]ccc3c2)c1 [Compound 74, 1-((1H-indol-5-yl)sulfonyl)-N-(6-fluoropyridin-3-yl)-1H-pyrrole-3-carboxamide]
23 | 8.31 | 10.7 | CCCc1ccc(NC(=O)c2ccn(S(=O)(=O)c3ccc4[nH]ccc4c3)c2)cc1F [Compound 97, 1-((1H-indol-5-yl)sulfonyl)-N-(3-fluoro-4-propylphenyl)-1H-pyrrole-3-carboxamide]
24 | 7.5 | 8.06 | CCCc1ccc(NC(=O)c2ccn(S(=O)(=O)c3ccc4[nH]ccc4c3)n2)cc1F [Compound 110, 1-((1H-indol-5-yl)sulfonyl)-N-(3-fluoro-4-propylphenyl)-1H-pyrazole-3-carboxamide]
25 | 13.4 | 16.1 | COc1ccc(NC(=O)c2ccn(S(=O)(=O)c3ccc4[nH]ccc4c3)c2)cc1 [Compound 102, 1-((1H-indol-5-yl)sulfonyl)-N-(4-methoxyphenyl)-1H-pyrrole-3-carboxamide]
26 | > 30 | > 30 | CC(C)c1ccccc1NC(=O)c1ccn(S(=O)(=O)c2ccc3[nH]ccc3c2)c1 [Compound 39, 1-((1H-indol-5-yl)sulfonyl)-N-(2-isopropylphenyl)-1H-pyrrole-3-carboxamide]
27 | > 30 | 3.45 | O=C(Nc1ccc(F)cn1)c1ccn(S(=O)(=O)c2ccc3[nH]ccc3c2)c1 [Compound 72]
28 | 11.2 | 2.62 | O=C(Nc1ccc(Cl)cn1)c1ccn(S(=O)(=O)c2ccc3[nH]ccc3c2)c1 [Compound 73]
29 | > 30 | 6.72 | N#Cc1ccc(NC(=O)c2ccn(S(=O)(=O)c3ccc4[nH]ccc4c3)n2)cc1 [Compound 79, 1-((1H-indol-5-yl)sulfonyl)-N-(4-cyanophenyl)-1H-pyrazole-3-carboxamide]
30 | > 30 | > 30 | O=C(Nc1c(F)cccc1F)c1ccn(S(=O)(=O)c2ccc3[nH]ccc3c2)c1 [Compound 53, 1-((1H-indol-5-yl)sulfonyl)-N-(2,6-difluorophenyl)-1H-pyrrole-3-carboxamide]
31 | 8.2 | 13.1 | O=C(Nc1cc(F)cc(F)c1)c1ccn(S(=O)(=O)c2ccc3[nH]ccc3c2)c1 [Compound 54, 1-((1H-indol-5-yl)sulfonyl)-N-(3,5-difluorophenyl)-1H-pyrrole-3-carboxamide]
32 | ≥ 100 | > 100 | Cc1ccc(NC(=O)c2ccn(S(=O)(=O)c3cc(C(N)=O)n(C)c3)c2)cc1O [Compound 19, 4-((3-((3-hydroxy-4-methylphenyl)carbamoyl)-1H-pyrrol-1-yl)sulfonyl)-1-methyl-1H-pyrrole-2-carboxamide]
33 | 8.81 | 5.11 | CC(C)Cc1ccc(NC(=O)c2ccn(S(=O)(=O)c3ccc4[nH]ccc4c3)n2)cc1F [Compound 112, 1-((1H-indol-5-yl)sulfonyl)-N-(3-fluoro-4-isobutylphenyl)-1H-pyrazole-3-carboxamide]
34 | > 30 | > 30 | CCC(C)c1ccc(CCNC(=O)c2ccn(S(=O)(=O)c3ccc(C(C)(C)C)cc3)c2)cc1 (stereo not drawn) [Compound 88, N-(4-(sec-butyl)phenethyl)-1-((4-(tert-butyl)phenyl)sulfonyl)-1H-pyrrole-3-carboxamide]
35 | > 30 | > 30 | CCc1ccccc1NC(=O)C1CCN(S(=O)(=O)c2ccc3[nH]ccc3c2)CC1 [Compound 61, 1-((1H-indol-5-yl)sulfonyl)-N-(2-ethylphenyl)piperidine-4-carboxamide]
36 | > 30 | > 30 | CCC(C)c1ccc(NC(=O)c2ccn(S(=O)(=O)c3ccc(C(C)(C)C)cc3)c2)cc1 (stereo not drawn) [Compound 91, N-(4-(sec-butyl)phenyl)-1-((4-(tert-butyl)phenyl)sulfonyl)-1H-pyrrole-3-carboxamide]
